Laboratory results published in patent US20220293224A1, “MODULAR SYNTHON-BASED SCREENING APPROACH FOR USE IN DRUG DISCOVERY FOR DISEASES” (priority 2021, published 2022).
Like-named read-outs stand apart in the source and are kept apart here.

Tests used:
human CB2 [1] = molecular target: T1, human CB2 (Homo sapiens, UniProt P34972); experiment: Radioligand binding assay with [3H]CP-55,940, HEK293 cells expressing hCB2; set-up: expressed in transfected cells; host or cells: HEK293 cells
Method: (§1) The affinities (IQ of the new compounds for rat CB1 receptor as well as for human CB2 receptors were obtained by using membrane preparations from rat brain or HEK293 cells expressing hCB2 receptors, respectively, and [^3H]CP-55,940 as the radioligand, as previously described. Results from the competition assays were analyzed using nonlinear regression to determine the IC50 values for the ligand; Ki values were calculated from the I50 (Prism by GraphPad Software, Inc.). Each experiment was performed in triplicate and Ki values determined from three independent experiments and are expressed as the mean of the three values.

rat CB1 receptor = molecular target: T2, rat CB1 receptor (Rattus norvegicus, UniProt P20272); experiment: Radioligand binding assay with [3H]CP-55,940, rat brain membranes
T2 construct: membrane preparations from rat brain; from tissue; host or cells: rat brain membranes
Method: as §1

human CB1 = molecular target: T3, human CB1 (Homo sapiens, UniProt P21554); format: cell-based; settings: read-out: CB1 Antagonist potency Ki
T3 construct: expressed in transfected cells; host or cells: HTLA cells
Method: (§2) The Tango arrestin recruitment assays were performed as previously described. Briefly, HTLA cells were transiently transfected with human CB1 or CB2 Tango DNA construct overnight in DMEM supplemented with 10% FBS, 100 μg/ml streptomycin and 100 U/ml penicillin. The transfected cells were then plated into Poly-L-Lysine coated 384-well white clear bottom cell culture plates in DMEM containing 1% dialyzed FBS at a density of 10,000-15,000 cells/well. After 6 hours incubation, the plates were added with drug solutions prepared in DMEM containing 1% dialyzed FBS for overnight incubation. […] On the day of assay, medium and drug solutions were removed and 20 μL/well of BrightGlo reagent (Promega) was added. The plates were further incubated for 20 min at room temperature and counted using a Wallac TriLux Microbeta counter (PerkinElmer). Results were analyzed using GraphPad Prism 8.

human CB2 [2] = molecular target: T1, human CB2; experiment: Tango β-arrestin recruitment antagonist assay at CB2; format: cell-based; set-up: expressed in transfected cells; host or cells: HTLA cells; settings: Tango antagonist assay with 100 nM CP55940; n=4 independent assays, 16 dose-response points; read-out: CB2 Antagonist potency Ki
Method: as §2

[3] = tested on: panel of more than 300 receptors; experiment: PRESTO-Tango GPCRome off-target panel; format: cell-based; settings: for activities at off-targets in follow-up dose-response curves: follow-up dose-response of potential actives
Method: Screening of the compounds in the PRESTO-Tango GPCRome was performed as previously described with modifications. First, HTLA cells were plated in poly-L-lysine coated 384-well white plates in DMEM containing 1% dialyzed FBS for 6 hours. Next, the cells were transfected with 20 ng/well PRESTO-Tango receptor DNAs overnight. Then, the cells were added with 10 μM drugs without changing the medium and incubated for another 24 hours. The remaining steps of the PRESTO-Tango protocol were followed. The results were plotted as fold of basal against individual receptors in the GraphPad 8.0 software. For the receptors that had >3-fold of basal signaling activity, assays were repeated as a full dose-response assay and the results were plotted as a percentage of reference compounds.

[4] = human CB2, [3H]CP-55,940, estimates from 3-point assays, read-out: CB2 affinity Ki (asterisk: estimate from 3-point assays)
[5] = rat CB1, [3H]CP-55,940 radioligand, read-out: CB1 affinity Ki
[6] = human CB2, [3H]CP-55,940 radioligand, read-out: CB2 affinity Ki
[7] = rat CB1, [3H]CP-55,940, estimates from 3-point assays, read-out: CB1 affinity Ki (asterisk: estimate from 3-point assays)

T3 sequence (P21554 whole entry): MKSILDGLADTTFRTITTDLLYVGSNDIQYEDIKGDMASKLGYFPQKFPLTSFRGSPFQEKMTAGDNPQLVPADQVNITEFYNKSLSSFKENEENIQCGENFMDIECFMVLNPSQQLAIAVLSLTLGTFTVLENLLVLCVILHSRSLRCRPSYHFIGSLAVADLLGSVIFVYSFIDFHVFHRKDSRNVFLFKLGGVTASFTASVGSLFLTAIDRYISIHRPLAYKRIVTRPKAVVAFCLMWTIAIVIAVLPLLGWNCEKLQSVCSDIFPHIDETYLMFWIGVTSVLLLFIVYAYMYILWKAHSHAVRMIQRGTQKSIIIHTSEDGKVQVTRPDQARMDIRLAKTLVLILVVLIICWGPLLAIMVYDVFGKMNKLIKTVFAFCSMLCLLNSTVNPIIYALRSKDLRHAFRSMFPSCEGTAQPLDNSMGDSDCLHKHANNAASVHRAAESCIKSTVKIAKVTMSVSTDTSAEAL
T2 sequence (P20272 whole entry): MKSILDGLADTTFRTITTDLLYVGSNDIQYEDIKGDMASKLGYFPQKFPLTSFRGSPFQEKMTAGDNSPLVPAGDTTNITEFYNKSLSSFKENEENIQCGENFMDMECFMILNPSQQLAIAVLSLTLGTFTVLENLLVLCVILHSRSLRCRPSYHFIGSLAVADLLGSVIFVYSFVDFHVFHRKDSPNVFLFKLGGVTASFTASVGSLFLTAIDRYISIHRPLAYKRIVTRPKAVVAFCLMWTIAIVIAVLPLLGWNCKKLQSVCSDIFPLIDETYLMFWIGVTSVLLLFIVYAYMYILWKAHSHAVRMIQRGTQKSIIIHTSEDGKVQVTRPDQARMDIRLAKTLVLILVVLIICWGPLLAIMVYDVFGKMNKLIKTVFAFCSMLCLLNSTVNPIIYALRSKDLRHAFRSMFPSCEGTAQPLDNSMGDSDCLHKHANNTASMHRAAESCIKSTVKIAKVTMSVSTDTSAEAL
T1 sequence (P34972 whole entry): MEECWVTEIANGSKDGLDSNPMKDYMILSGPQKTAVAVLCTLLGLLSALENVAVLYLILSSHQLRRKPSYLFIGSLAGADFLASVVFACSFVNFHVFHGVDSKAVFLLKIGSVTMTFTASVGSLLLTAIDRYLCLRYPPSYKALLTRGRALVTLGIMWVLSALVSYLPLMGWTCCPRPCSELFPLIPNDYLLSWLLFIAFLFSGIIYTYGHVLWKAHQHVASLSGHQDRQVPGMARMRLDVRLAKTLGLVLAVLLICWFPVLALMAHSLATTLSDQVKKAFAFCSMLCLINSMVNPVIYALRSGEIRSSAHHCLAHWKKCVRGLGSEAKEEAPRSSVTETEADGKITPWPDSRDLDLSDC

`Cc1ccc(NC(=O)Nc2ccn(C3CCOCC3)n2)cc1S(=O)(=O)N1CCCCCC1` [BRI-13505] gave a Ki (human CB2 [1]; [4]) of 1 µM, a Ki (rat CB1 receptor; [5]) of 16.4 µM and a Ki (human CB1) of 0.28 µM. For the same compound, the Ki (human CB2 [2]) was 0.54 µM.

In the case of `O=C1Cc2cc(NC(=O)C(=O)NC(CCc3ccccc3)c3ccccc3)ccc2N1` (stereo not drawn) [BRI-13515], the Ki (human CB2 [1]; [6]) is reported as 2.85 µM, the Ki (rat CB1 receptor; [5]) is reported as 6.1 µM and the Ki (human CB1) is reported as 0.94 µM. It also gave a Ki (human CB2 [2]) of 3.81 µM.

In the case of `Cc1cc(Cl)cn2cc(CNC(=O)C(=O)NC(COc3ccccc3)c3ccccc3)nc12` (stereo not drawn) [BRI-13520], the Ki (human CB2 [1]; [6]) is reported as 12.8 µM, the Ki (rat CB1 receptor; [5]) is reported as 11.6 µM and the Ki (human CB1) is reported as 1.07 µM. The Ki (human CB2 [2]) was 5.2 µM.

Compound `C=CCC1(S(=O)(=O)NC(=O)c2ccc(N3CCCCC3)c(S(=O)(=O)N3CCCCCC3)c2)CC1` [BRI-13523] has a Ki (human CB2 [1]; [6]) of 0.85 µM, a Ki (rat CB1 receptor; [5]) of 12 µM and a Ki (human CB1) of 1.82 µM. For the same compound, the “activities at off-targets in follow-up dose-response curves” value [3] was “only negligible activities”, the “selectivity against the GPCRome-Tango panel” value ([3]; panel of more than 300 receptors) was “high selectivity” and the Ki (human CB2 [2]) was 1.59 µM.

`Cc1ccc(NC(=O)Nc2ccn(C3CCCCCC3)n2)cc1S(=O)(=O)N1CCCCCC1` [BRI-13544] showed a Ki (human CB2 [1]; [4]) of 2.5 µM and a Ki (human CB2 [2]) of 7.78 µM.

With `CC1(C)NC(=O)N(CCCNC(=O)NCc2oc3ccc(Cl)cc3c2-c2ccccc2)C1=O` [BRI-13559] the Ki (human CB2 [1]; [6]) was 12.2 µM, the Ki (human CB1) was 0.98 µM and the Ki (human CB2 [2]) was 4.25 µM.

`COc1ccc(-c2nccc(N3CCCC(Cc4ccc(N)nc4)C3)n2)cc1` (stereo not drawn) [BRI-13565] was tested, and the Ki (human CB2 [1]; [6]) was 13.6 µM, the Ki (rat CB1 receptor; [7]) was 4.5 µM and the Ki (human CB2 [2]) was 3.77 µM.

With `O=C(NCC1(Cc2ccccc2)CC=CCC1)C(=O)Nc1c(F)ccc(Br)c1F` (stereo not drawn) [BRI-13566] the Ki (human CB2 [1]; [6]) was 1.2 µM, the Ki (rat CB1 receptor; [7]) was 6.9 µM and the Ki (human CB1) was 2.05 µM. It also gave a Ki (human CB2 [2]) of 4.04 µM.

In the case of `Cn1ccc(-n2cc(-c3csc(C(NC(=O)c4ccccc4)c4ccccc4)n3)nn2)n1` (stereo not drawn) [BRI-13580], the Ki (human CB2 [1]; [4]) is reported as 1.5 µM, the Ki (human CB1) is reported as 5.8 µM and the Ki (human CB2 [2]) is reported as 6.92 µM.

For `Cc1ccc(NC(=O)N2CCC(O)(c3ccccc3F)C2)cc1S(=O)(=O)N1CCCCCC1` (stereo not drawn) [BRI-13599], the Ki (human CB2 [1]; [6]) was 10.4 µM, the Ki (rat CB1 receptor; [7]) was 26.5 µM and the Ki (human CB1) was 2.33 µM. It also gave a Ki (human CB2 [2]) of 2.44 µM.

`O=C(Nc1ccn(C2CCCCC2)n1)C(=O)NC(CCc1ccccc1)c1ccccc1` (stereo not drawn) [BRI-13610] gave a Ki (human CB2 [1]; [6]) of 0.28 µM, a Ki (rat CB1 receptor; [5]) of 0.62 µM and a Ki (human CB1) of 0.76 µM. The “activities at off-targets in follow-up dose-response curves” value [3] was “only negligible activities” and the Ki (human CB2 [2]) was 4.17 µM.

In the case of `O=C1CCc2cc(OCCNC(=O)N(Cc3ccccc3)Cc3ccc(F)cc3)ccc2N1` [BRI-13619], the Ki (rat CB1 receptor; [7]) is reported as 45 µM, the Ki (human CB1) is reported as 0.05 µM and the Ki (human CB2 [2]) is reported as 0.11 µM.

With `N#Cc1ccc(C(=O)NCCN(Cc2ccccc2)C(=O)c2cc(C(F)(F)F)cs2)s1` [BRI-13633] the Ki (rat CB1 receptor; [7]) was 10 µM, the Ki (human CB1) was 0.23 µM and the Ki (human CB2 [2]) was 1.53 µM.

In the case of `CS(C)(=O)=NS(=O)(=O)c1cccc(C(=O)OCc2cccc3ccsc23)c1` [BRI-13650], the Ki (rat CB1 receptor; [7]) is reported as 45 µM, the Ki (human CB1) is reported as 3.22 µM and the Ki (human CB2 [2]) is reported as 12.2 µM.

With `O=S(=O)(NC1CC1)c1ccc(S(=O)(=O)NC(CCc2ccccc2)c2ccccn2)cc1` (stereo not drawn) [BRI-13661] the Ki (human CB2 [1]; [6]) was 4 µM, the Ki (rat CB1 receptor; [7]) was 19 µM and the Ki (human CB1) was 0.55 µM. The Ki (human CB2 [2]) was 4.37 µM.

`O=C(C1CC1)N1CCc2ccc(S(=O)(=O)NC(CCc3ccccc3)c3ccccn3)cc21` (stereo not drawn) [BRI-13663] was tested, and the Ki (human CB2 [1]; [6]) was 14.3 µM, the Ki (rat CB1 receptor; [7]) was 12.5 µM and the Ki (human CB2 [2]) was 14.5 µM.

Compound `O=C(c1ccc(F)cc1)c1cc(Cl)ccc1NS(=O)(=O)c1cnn(C2CCCCC2)c1` [BRI-13665] has a Ki (human CB2 [1]; [6]) of 6.7 µM, a Ki (rat CB1 receptor; [7]) of over 7 µM and a Ki (human CB1) of 0.39 µM. The Ki (human CB2 [2]) was 0.82 µM.

`Cc1ccc(CN(Cc2ccco2)S(=O)(=O)c2cnn(-c3ccccc3F)c2)s1` [BRI-13668] was tested, and the Ki (human CB2 [1]; [6]) was 5.2 µM and the Ki (human CB2 [2]) was 4.78 µM.

Compound `CCCC(NS(=O)(=O)C1CC2(CC2)C1)C(=O)Nc1cccc(N2CCCC2)c1` (stereo not drawn) [BRI-13681] has a Ki (human CB2 [1]; [6]) of 4.2 µM, a Ki (rat CB1 receptor; [5]) of 8.2 µM and a Ki (human CB1) of 0.42 µM. The Ki (human CB2 [2]) was 1.86 µM.

For `O=S(=O)(C1=Cc2cc(Cl)ccc2OC1)N(CCc1ccccn1)Cc1cccnc1` [BRI-13684], the Ki (human CB2 [1]; [6]) was 5.3 µM, the Ki (rat CB1 receptor; [5]) was 25.5 µM and the Ki (human CB1) was 1.16 µM. It also gave a Ki (human CB2 [2]) of 7.28 µM.
